# From US20250213555A1, “SUBSTITUTED TETRAHYDROFURAN ANALOGS AS MODULATORS OF SODIUM CHANNELS” (VERTEX PHARMACEUTICALS INCORPORATED, priority 2021, published 2025)
# Target: human Nav 1.8 (Homo sapiens, UniProt Q9Y5Y9)
# Experiment: E-VIPR assay detecting and measuring Nav inhibition properties
# Format: cell-based
# Details: HEK cells expressing a truncated form of human Nav 1.8; compound numbers without "*" (not marked as run in the presence of human serum); read-out: measured IC50 value in the E-VIPR Assay
# Method in brief: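 Nav inhibition was read by E-VIPR: cells were electrically stimulated while coumarin/oxonol FRET emissions were recorded. Cells were HEK expressing a truncated human Nav 1.8 and co-transduced with KIR2.1, and were assayed in 25% final human serum.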
# Chain of human Nav 1.8 (Q9Y5Y9 126-399 limits assumed): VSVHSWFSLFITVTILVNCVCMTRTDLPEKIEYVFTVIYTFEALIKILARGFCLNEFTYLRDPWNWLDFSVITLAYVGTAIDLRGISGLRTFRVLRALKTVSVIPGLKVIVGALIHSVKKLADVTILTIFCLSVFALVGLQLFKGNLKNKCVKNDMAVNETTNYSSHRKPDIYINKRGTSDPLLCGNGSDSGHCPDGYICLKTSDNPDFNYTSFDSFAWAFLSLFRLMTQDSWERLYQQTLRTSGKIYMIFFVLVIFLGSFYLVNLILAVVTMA
# Chain of human Nav 1.8 (Q9Y5Y9 660-890 limits assumed): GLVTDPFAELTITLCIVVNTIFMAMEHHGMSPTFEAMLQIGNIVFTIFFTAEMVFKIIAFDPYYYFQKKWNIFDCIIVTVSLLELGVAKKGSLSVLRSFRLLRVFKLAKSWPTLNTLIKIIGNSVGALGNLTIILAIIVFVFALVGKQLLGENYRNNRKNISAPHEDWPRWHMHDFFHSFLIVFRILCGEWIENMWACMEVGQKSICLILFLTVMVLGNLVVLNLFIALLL
# Chain of human Nav 1.8 (Q9Y5Y9 1148-1722 limits assumed): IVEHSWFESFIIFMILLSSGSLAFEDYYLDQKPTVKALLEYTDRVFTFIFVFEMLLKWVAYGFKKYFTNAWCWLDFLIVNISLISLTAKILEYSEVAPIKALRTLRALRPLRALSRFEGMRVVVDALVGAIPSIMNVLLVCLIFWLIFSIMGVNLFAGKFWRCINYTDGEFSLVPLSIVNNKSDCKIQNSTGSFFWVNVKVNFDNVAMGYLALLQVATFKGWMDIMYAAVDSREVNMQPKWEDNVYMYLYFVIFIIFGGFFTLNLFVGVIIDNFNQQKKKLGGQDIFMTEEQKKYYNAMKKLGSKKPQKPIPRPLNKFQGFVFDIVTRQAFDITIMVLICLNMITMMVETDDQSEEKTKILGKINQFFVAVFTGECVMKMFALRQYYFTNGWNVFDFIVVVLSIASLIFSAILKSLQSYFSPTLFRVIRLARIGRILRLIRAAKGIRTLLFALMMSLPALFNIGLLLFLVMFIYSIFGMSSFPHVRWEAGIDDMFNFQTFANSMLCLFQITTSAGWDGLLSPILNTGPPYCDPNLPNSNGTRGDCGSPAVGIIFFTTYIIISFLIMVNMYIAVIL
row,IC50,Compound
1,100 to 1000 nM,"COc1c([C@@H]2[C@@H](C(=O)Nc3ccnc(C(N)=O)c3)O[C@@](C)(C(F)(F)F)[C@H]2C)ccc(OCC2CC2)c1F (single isomer, unassigned) [Compound 143]"
2,< 10 nM,"COc1c([C@H]2[C@H](C(=O)Nc3ccnc(C(=O)N4CC5(CNC5)C4)c3)O[C@@](C)(C(F)(F)F)[C@H]2C)ccc(F)c1F [Compound 228, (2R,3S,4S,5R)-N-(2-(2,6-diazaspiro[3.3]heptane-2-carbonyl)pyridin-4-yl)-3-(3,4-difluoro-2-methoxyphenyl)-4,5-dimethyl-5-(trifluoromethyl)tetrahydrofuran-2-carboxamide]"
3,100 to 1000 nM,"COc1c([C@H]2[C@H](C(=O)Nc3ccnc(C(=O)NC[C@@H]4CC(F)(F)CN4C)c3)O[C@@](C)(C(F)(F)F)[C@H]2C)ccc(F)c1F [Compound 267, N-(((S)-4,4-difluoro-1-methylpyrrolidin-2-yl)methyl)-4-((2R,3S,4S,5R)-3-(3,4-difluoro-2-methoxyphenyl)-4,5-dimethyl-5-(trifluoromethyl)tetrahydrofuran-2-carboxamido)picolinamide]"
4,10 to 100 nM,"C[C@H]1[C@@H](c2ccc(F)c(F)c2OC2CN(C)C2)[C@H](C(=O)Nc2ccnc(C(N)=O)c2)O[C@@]1(C)C(F)(F)F [Compound 101, 4-((2R,3S,4S,5R)-3-(3,4-difluoro-2-((1-methylazetidin-3-yl)oxy)phenyl)-4,5-dimethyl-5-(trifluoromethyl)tetrahydrofuran-2-carboxamido) picolinamide]"
5,< 10 nM,"COc1c([C@H]2[C@H](C(=O)Nc3ccnc(C(=O)N4CCNC[C@@H]4C)c3)O[C@@](C)(C(F)(F)F)[C@H]2C)ccc(F)c1F [Compound 232, (2R,3S,4S,5R)-3-(3,4-difluoro-2-methoxyphenyl)-4,5-dimethyl-N-(2-((S)-2-methylpiperazine-1-carbonyl)pyridin-4-yl)-5-(trifluoromethyl)tetrahydrofuran-2-carboxamide]"
6,10 to 100 nM,"COc1c([C@H]2[C@H](C(=O)Nc3cc(C(=O)N4CCN(C)CC4)ncc3C)O[C@@](C)(C(F)(F)F)[C@H]2C)ccc(F)c1F [Compound 12, (2R,3S,4S,5R)-3-(3,4-difluoro-2-methoxyphenyl)-4,5-dimethyl-N-(5-methyl-2-(4-methylpiperazine-1-carbonyl)pyridin-4-yl)-5-(trifluoromethyl)tetrahydrofuran-2-carboxamide]"
7,< 10 nM,"CC(COc1c([C@H]2[C@H](C(=O)Nc3ccnc(C(N)=O)c3)O[C@@](C)(C(F)(F)F)[C@H]2C)cccc1C(F)(F)F)=NO [Compound 196, 4-((2R,3S,4S,5R)-3-(2-(2-(hydroxyimino)propoxy)-3-(trifluoromethyl)phenyl)-4,5-dimethyl-5-(trifluoromethyl)tetrahydrofuran-2-carboxamido)picolinamide]"
8,< 10 nM,"COc1c([C@H]2[C@H](C(=O)Nc3ccnc(C(=O)N4CCNC[C@H]4C)c3)O[C@@](C)(C(F)(F)F)[C@H]2C)ccc(F)c1F [Compound 235, (2R,3S,4S,5R)-3-(3,4-difluoro-2-methoxyphenyl)-4,5-dimethyl-N-(2-((R)-2-methylpiperazine-1-carbonyl)pyridin-4-yl)-5-(trifluoromethyl)tetrahydrofuran-2-carboxamide]"
9,< 10 nM,"COc1c([C@H]2[C@H](C(=O)Nc3ccnc(C(=O)N4CCO[C@H]5CN(C)C[C@H]54)c3)O[C@@](C)(C(F)(F)F)[C@H]2C)ccc(F)c1F [Compound 282, (2R,3S,4S,5R)-3-(3,4-difluoro-2-methoxyphenyl)-4,5-dimethyl-N-(2-((4aR,7aS)-6-methyloctahydropyrrolo[3,4-b][1,4]oxazine-4-carbonyl)pyridin-4-yl)-5-(trifluoromethyl)tetrahydrofuran-2-carboxamide]"
10,10 to 100 nM,"COc1c([C@H]2[C@H](C(=O)Nc3ccnc(C(=O)N4CCC45CNC5)c3)O[C@@](C)(C(F)(F)F)[C@H]2C)ccc(F)c1F [Compound 225, (2R,3S,4S,5R)-N-(2-(1,6-diazaspiro[3.3]heptane-1-carbonyl)pyridin-4-yl)-3-(3,4-difluoro-2-methoxyphenyl)-4,5-dimethyl-5-(trifluoromethyl)tetrahydrofuran-2-carboxamide]"
11,100 to 1000 nM,"COc1c([C@H]2[C@H](C(=O)Nc3ccnc(C(=O)NC[C@@H]4CC(F)(F)CN4)c3)O[C@@](C)(C(F)(F)F)[C@H]2C)ccc(F)c1F [Compound 226, 4-((2R,3S,4S,5R)-3-(3,4-difluoro-2-methoxyphenyl)-4,5-dimethyl-5-(trifluoromethyl)tetrahydrofuran-2-carboxamido)-N-(((S)-4,4-difluoropyrrolidin-2-yl)methyl)picolinamide]"
12,< 10 nM,"C/C(COc1c([C@H]2[C@H](C(=O)Nc3ccnc(C(N)=O)c3)O[C@@](C)(C(F)(F)F)[C@H]2C)ccc(F)c1F)=N\O [Compound 185, 4-((2R,3S,4S,5R)-3-(3,4-difluoro-2-((E)-2-(hydroxyimino)propoxy)phenyl)-4,5-dimethyl-5-(trifluoromethyl)tetrahydrofuran-2-carboxamido)picolinamide]"
13,< 10 nM,"COc1c([C@H]2[C@H](C(=O)Nc3ccnc(C(=O)N4CCNCC4)c3)O[C@@](C)(C(F)(F)F)[C@H]2C)ccc(F)c1F [Compound 224, (2R,3S,4S,5R)-3-(3,4-difluoro-2-methoxyphenyl)-4,5-dimethyl-N-(2-(piperazine-1-carbonyl)pyridin-4-yl)-5-(trifluoromethyl)tetrahydrofuran-2-carboxamide]"
14,10 to 100 nM,"C[C@H]1[C@@H](c2ccc(F)c(F)c2OCC2(F)CN(C)C2)[C@H](C(=O)Nc2ccnc(C(N)=O)c2)O[C@@]1(C)C(F)(F)F [Compound 105, 4-((2R,3S,4S,5R)-3-(3,4-difluoro-2-((3-fluoro-1-methylazetidin-3-yl)methoxy)phenyl)-4,5-dimethyl-5-(trifluoromethyl)tetrahydrofuran-2-carboxamido)picolinamide]"
15,< 10 nM,"COc1c([C@H]2[C@H](C(=O)Nc3ccnc(C(=O)N4C[C@@H](N)[C@@H](OC)C4)c3)O[C@@](C)(C(F)(F)F)[C@H]2C)ccc(F)c1F [Compound 261, (2R,3S,4S,5R)-N-(2-((3R,4S)-3-amino-4-methoxypyrrolidine-1-carbonyl)pyridin-4-yl)-3-(3,4-difluoro-2-methoxyphenyl)-4,5-dimethyl-5-(trifluoromethyl)tetrahydrofuran-2-carboxamide]"
16,< 10 nM,"COc1c([C@H]2[C@H](C(=O)Nc3ccnc(C(=O)N(C)O)c3)O[C@@](C)(C(F)(F)F)[C@H]2C)ccc(F)c1F [Compound 217, 4-((2R,3S,4S,5R)-3-(3,4-difluoro-2-methoxyphenyl)-4,5-dimethyl-5-(trifluoromethyl)tetrahydrofuran-2-carboxamido)-N-hydroxy-N-methylpicolinamide]"
17,< 10 nM,"COc1c([C@H]2[C@H](C(=O)Nc3ccnc(C(=O)N4C[C@H]5C[C@@H]4CN5)c3)O[C@@](C)(C(F)(F)F)[C@H]2C)ccc(F)c1F [Compound 254, (2R,3S,4S,5R)-N-(2-((1R,4R)-2,5-diazabicyclo[2.2.1]heptane-2-carbonyl)pyridin-4-yl)-3-(3,4-difluoro-2-methoxyphenyl)-4,5-dimethyl-5-(trifluoromethyl)tetrahydrofuran-2-carboxamide]"
18,10 to 100 nM,"C[C@H]1[C@@H](c2ccc(F)c(F)c2OC[C@H]2C[C@](O)(C(F)(F)F)C2)[C@H](C(=O)Nc2ccnc(C(N)=O)c2)O[C@@]1(C)C(F)(F)F [Compound 7, 4-((2R,3S,4S,5R)-3-(3,4-difluoro-2-(((1s,3R)-3-hydroxy-3-(trifluoromethyl)cyclobutyl)methoxy)phenyl)-4,5-dimethyl-5-(trifluoromethyl)tetrahydrofuran-2-carboxamido)picolinamide]"
19,≥ 1000 nM,"COCc1c([C@@H]2[C@@H](C(=O)Nc3ccnc(C(N)=O)c3)O[C@](C)(C(F)(F)F)[C@@H]2C)ccc(F)c1F (single isomer, unassigned) [Compound 146]"
20,10 to 100 nM,"COc1c([C@H]2[C@H](C(=O)Nc3cc(C(=O)N4CCNCC4)ncn3)O[C@@](C)(C(F)(F)F)[C@H]2C)ccc(F)c1F [Compound 21, (2R,3S,4S,5R)-3-(3,4-difluoro-2-methoxyphenyl)-4,5-dimethyl-N-(6-(piperazine-1-carbonyl)pyrimidin-4-yl)-5-(trifluoromethyl)tetrahydrofuran-2-carboxamide]"

row,Compound,IC50
1,"CC[C@H](CO)COc1c([C@H]2[C@H](C(=O)Nc3ccnc(C(N)=O)c3)O[C@@](C)(C(F)(F)F)[C@H]2C)ccc(F)c1F (single isomer, unassigned) [Compound 92, rel-4-((2R*,3S*,4S*,5R*)-3-(3,4-difluoro-2-(2-(hydroxymethyl)butoxy)phenyl)-4,5-dimethyl-5-(trifluoromethyl)tetrahydrofuran-2-carboxamido)picolinamide]",10 to 100 nM
2,"CC(C)C(COc1c([C@H]2[C@H](C(=O)Nc3ccnc(C(N)=O)c3)O[C@@](C)(C(F)(F)F)[C@H]2C)ccc(F)c1F)=NO [Compound 186, 4-((2R,3S,4S,5R)-3-(3,4-difluoro-2-(2-(hydroxyimino)-3-methylbutoxy)phenyl)-4,5-dimethyl-5-(trifluoromethyl)tetrahydrofuran-2-carboxamido)picolinamide]",< 10 nM
3,"COc1c([C@H]2[C@H](C(=O)Nc3ccnc(C(=O)N4C[C@H]5CC[C@@H](C4)N(C)C5)c3)O[C@@](C)(C(F)(F)F)[C@H]2C)ccc(F)c1F [Compound 283, (2R,3S,4S,5R)-3-(3,4-difluoro-2-methoxyphenyl)-4,5-dimethyl-N-(2-((1S,5S)-6-methyl-3,6-diazabicyclo[3.2.2]nonane-3-carbonyl)pyridin-4-yl)-5-(trifluoromethyl)tetrahydrofuran-2-carboxamide]",< 10 nM
4,"COc1c([C@H]2[C@H](C(=O)Nc3ccnc(C(=O)N4CC5COCC(C4)N5)c3)O[C@@](C)(C(F)(F)F)[C@H]2C)ccc(F)c1F [Compound 245, (2R,3S,4S,5R)-N-(2-(3-oxa-7,9-diazabicyclo[3.3.1]nonane-7-carbonyl)pyridin-4-yl)-3-(3,4-difluoro-2-methoxyphenyl)-4,5-dimethyl-5-(trifluoromethyl)tetrahydrofuran-2-carboxamide]",< 10 nM
